Test results published in US20100189819A1, “NEURO-DEGENERATIVE INHIBITOR, NEURO-ENDOCRINE MODULATOR, AND NEURO-CEREBRAL METABOLISM ENHANCER” (INTRATHERAPIES LLC, priority 2002, published 2010).
Where a name gives a salt, the structure may show the parent alone.

Key:
[1] = test system: patient with depression and anxiety; format: in vivo, human; conditions: for side effects of previous medication: in vivo; for effect of previous medication on depression, stress and anxiety: person, earlier treatment with both medications
Source text: A patient, who suffered from depression and anxiety, was previously treated with PAXIL® (paroxetine hydrochloride), a selective serotonin reuptake inhibitor (SSRI) and Trazodone HCl, a serotonin 2A antagonist and reuptake inhibitor (SARI). […] When they stopped taking the medication 6 months later, their depression and anxiety symptoms returned.
They also noted that their eyesight and visual clarity have improved.

[2] = test system: patient with moderate depression, OCD and ADHD; experiment: Depression, OCD and ADHD case report (Example 8); conditions: patient history
Method: The patients were instructed to take the contents of 1 vial on an empty stomach 30 to 45 minutes prior to breakfast by dissolving under the tongue (sublingual infusion). The treatment regimen consisted of weekly cycles of five days of taking the composition and two days off the composition. The cycle was repeated. The patients were asked to drink at least one 8-ounce glass of water immediately after taking the composition and an additional 8-ounce glass of water within the first hour. Also, the patients were asked to avoid caffeine usage for at least 2 to 3 hours after the infusion. […] The patients were warned against taking the composition in a combination with antibiotics and/or antidepressants.

[3] = local anesthetic use; cited from earlier work

O=c1n(CCCN2CCN(c3cccc(Cl)c3)CC2)nc2ccccn12 [Trazodone HCl]
side effects of previous medication [1]: severe side effects, including a loss of short-term memory, constipation, decreased libido, and disturbed sleep
effect of previous medication on depression, stress and anxiety [1]: helped to decrease depression, stress, and anxiety

Fc1ccc([C@@H]2CCNC[C@H]2COc2ccc3c(c2)OCO3)cc1 [PAXIL, paroxetine hydrochloride]
side effects of previous medication [1]: severe side effects, including a loss of short-term memory, constipation, decreased libido, and disturbed sleep
effect of previous medication on depression, stress and anxiety [1]: helped to decrease depression, stress, and anxiety

CC(NC(C)(C)C)C(=O)c1cccc(Cl)c1 (centres unmarked) [Wellbutrin]
side effects of previous medication [2]: paranoia and acute panic symptoms

CCN(CC)CCOC(=O)c1ccc(N)cc1.Cl [Procaine, 2-diethylaminoethyl p-aminobenzoate hydrochloride]
duration of anesthesia [3]: approximately 1 hour
time to anesthesia [3]: 2 to 5 min

COC(=O)C(c1ccccc1)C1CCCCN1 (centres unmarked) [Ritalin]
side effects of previous medication [2]: general listlessness continued along with general malaise and lack of focus
